Measurements taken from patent publication US20240190865A1, “T-TYPE CALCIUM CHANNEL ANTAGONISTS AND USES THEREOF” (THE BOARD OF TRUSTEES OF THE LELAND STANFORD JUNIOR …, priority 2021, published 2024).

Molecular target: Cav3.2 (Homo sapiens (Human), UniProt O95180)
Experiment: In vitro patch clamp assay (SyncroPatch 384PE)
Assay type: cell-based
Settings: HEK293 cells
Protocol: Patch clamp assays were performed at Charles River. HEK293 cells were cultured in Dulbecco's Modified Eagle Medium/Nutrient Mixture F-12 (D-MEM/F-12) supplemented with 10% fetal bovine serum, 100 U/mL penicillin G sodium, 100 μg/mL streptomycin sulfate and 500 μg/mL G418. Before testing, cells in culture dishes were washed twice with Hank's Balanced Salt Solution, treated with Accutase™ and re-suspended in the culture media (˜20×10^6 cells in 20 mL). Cells in suspension were allowed to recover for 10 minutes in tissue culture incubator set at 37° C. in a humidified 95% air: 5% CO2 atmosphere. Immediately before use in the SyncroPatch 384PE system (SP384PE), the cells were washed twice in extracellular buffer (HB-PS) to remove the culture medium and re-suspended in 20 mL of HB-PS. Extracellular buffer was loaded into the wells of Nanion 384-well Patch Clamp (NPC-384, 4×M) chip (60 μL per well). Then, cell suspension was pipetted into the wells (20 μL per well) of the chip. After establishment of the whole-cell configuration, membrane currents were recorded using patch clamp amplifier in the SP384PE system.

Chain of Cav3.2 (O95180 whole entry): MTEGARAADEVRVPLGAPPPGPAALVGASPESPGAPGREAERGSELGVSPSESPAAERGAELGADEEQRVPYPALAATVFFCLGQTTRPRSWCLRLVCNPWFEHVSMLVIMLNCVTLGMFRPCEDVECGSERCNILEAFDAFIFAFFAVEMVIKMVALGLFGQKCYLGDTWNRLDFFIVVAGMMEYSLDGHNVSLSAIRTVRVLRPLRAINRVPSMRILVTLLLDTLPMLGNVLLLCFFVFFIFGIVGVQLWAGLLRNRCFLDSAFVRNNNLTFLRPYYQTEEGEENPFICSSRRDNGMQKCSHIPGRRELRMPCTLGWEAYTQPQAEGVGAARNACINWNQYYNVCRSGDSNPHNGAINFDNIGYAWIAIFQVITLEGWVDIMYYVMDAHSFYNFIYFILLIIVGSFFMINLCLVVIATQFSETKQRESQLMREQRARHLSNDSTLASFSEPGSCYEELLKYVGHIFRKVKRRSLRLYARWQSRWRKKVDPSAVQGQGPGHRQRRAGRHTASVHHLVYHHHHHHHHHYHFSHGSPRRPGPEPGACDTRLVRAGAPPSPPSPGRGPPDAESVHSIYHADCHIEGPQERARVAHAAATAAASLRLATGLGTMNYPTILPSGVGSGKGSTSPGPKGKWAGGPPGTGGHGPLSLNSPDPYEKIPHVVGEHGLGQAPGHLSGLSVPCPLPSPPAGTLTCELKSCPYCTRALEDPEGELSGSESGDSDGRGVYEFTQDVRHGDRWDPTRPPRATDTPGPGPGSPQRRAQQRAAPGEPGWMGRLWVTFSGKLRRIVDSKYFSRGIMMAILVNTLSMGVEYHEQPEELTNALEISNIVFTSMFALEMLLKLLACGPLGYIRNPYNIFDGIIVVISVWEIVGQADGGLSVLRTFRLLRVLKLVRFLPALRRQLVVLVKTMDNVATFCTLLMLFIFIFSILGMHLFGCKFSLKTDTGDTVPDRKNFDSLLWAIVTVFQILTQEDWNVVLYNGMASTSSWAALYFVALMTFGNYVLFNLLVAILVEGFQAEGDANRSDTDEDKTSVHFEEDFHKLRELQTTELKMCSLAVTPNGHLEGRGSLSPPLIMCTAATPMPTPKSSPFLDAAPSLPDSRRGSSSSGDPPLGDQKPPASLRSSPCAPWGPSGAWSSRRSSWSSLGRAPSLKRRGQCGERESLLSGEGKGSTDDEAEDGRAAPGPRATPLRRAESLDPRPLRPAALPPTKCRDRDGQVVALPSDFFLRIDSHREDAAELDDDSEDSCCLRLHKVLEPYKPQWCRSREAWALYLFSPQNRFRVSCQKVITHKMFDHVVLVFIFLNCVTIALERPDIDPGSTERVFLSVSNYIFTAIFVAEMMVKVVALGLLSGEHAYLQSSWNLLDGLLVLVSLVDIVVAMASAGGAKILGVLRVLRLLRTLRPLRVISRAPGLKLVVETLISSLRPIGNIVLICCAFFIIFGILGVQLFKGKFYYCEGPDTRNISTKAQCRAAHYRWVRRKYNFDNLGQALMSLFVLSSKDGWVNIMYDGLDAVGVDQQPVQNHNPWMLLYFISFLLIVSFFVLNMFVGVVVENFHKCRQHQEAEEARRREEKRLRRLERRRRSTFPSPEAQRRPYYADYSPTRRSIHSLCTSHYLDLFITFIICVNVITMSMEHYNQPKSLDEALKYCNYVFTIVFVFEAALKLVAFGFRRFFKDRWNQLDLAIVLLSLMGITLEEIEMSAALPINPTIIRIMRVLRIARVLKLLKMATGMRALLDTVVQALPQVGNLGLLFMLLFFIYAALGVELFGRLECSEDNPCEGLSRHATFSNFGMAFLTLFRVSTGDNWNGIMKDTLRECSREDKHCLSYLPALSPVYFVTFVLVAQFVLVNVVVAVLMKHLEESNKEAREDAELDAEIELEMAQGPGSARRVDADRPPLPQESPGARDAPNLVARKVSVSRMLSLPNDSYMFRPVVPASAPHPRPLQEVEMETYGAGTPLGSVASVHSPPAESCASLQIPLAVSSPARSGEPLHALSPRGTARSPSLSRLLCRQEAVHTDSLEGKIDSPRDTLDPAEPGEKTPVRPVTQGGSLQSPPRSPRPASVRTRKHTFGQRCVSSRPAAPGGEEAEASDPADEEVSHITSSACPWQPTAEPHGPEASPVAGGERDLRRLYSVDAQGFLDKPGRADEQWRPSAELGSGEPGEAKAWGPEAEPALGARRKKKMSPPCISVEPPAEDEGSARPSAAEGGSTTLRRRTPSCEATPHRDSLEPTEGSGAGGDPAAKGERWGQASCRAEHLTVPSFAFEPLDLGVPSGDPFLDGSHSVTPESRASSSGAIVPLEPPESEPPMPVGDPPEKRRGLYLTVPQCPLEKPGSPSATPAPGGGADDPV

| Structure (SMILES) | IC50 [µM] |
| --- | --- |
| CC(C)c1ccc(CC(=O)N[C@H](C)c2cc3cn(C)nc3cn2)cc1 [Example 2, (R)-2-(4-isopropylphenyl)-N-(1-(2-methyl-2H-pyrazolo[3,4-c]pyridin-5-yl)ethyl)acetamide] | 6.45 |
| CC(C)c1ccc(CC(=O)N[C@H](C)c2cc3c(cn2)cnn3C)cc1 [Example 3, (R)-2-(4-isopropylphenyl)-N-(1-(1-methyl-1H-pyrazolo[4,3-c]pyridin-6-yl)ethyl)acetamide] | > 10 |
| CC(C)c1ccc(CC(=O)N[C@H](C)c2cc3nn(C)cc3cn2)cc1 [Example 4, (R)-2-(4-isopropylphenyl)-N-(1-(2-methyl-2H-pyrazolo[4,3-c]pyridin-6-yl)ethyl)acetamide] | > 10 |
| Cc1noc2cc([C@@H](C)NC(=O)Cc3ccc(C(C)C)cc3)ncc12 [Example 5, (R)-2-(4-isopropylphenyl)-N-(1-(3-methylisoxazolo[4,5-c]pyridin-6-yl)ethyl)acetamide] | 1.22 |
| Cc1noc2cnc([C@@H](C)NC(=O)Cc3ccc(C(C)C)cc3)cc12 [Example 6, (R)-2-(4-isopropylphenyl)-N-(1-(3-methylisoxazolo[5,4-c]pyridin-5-yl)ethyl)acetamide] | 7.84 |
| C[C@@H](NC(=O)Cc1ccc(C2(C(F)(F)F)CC2)cc1)c1cnc2c(cnn2C)c1 [Example 10, (R)—N-(1-(1-methyl-1H-pyrazolo[3,4-b]pyridin-5-yl)ethyl)-2-(4-(1-(trifluoromethyl)cyclopropyl)phenyl)acetamide] | > 10 |
| CCCn1cc2cc([C@@H](C)NC(=O)Cc3ccc(C(C)C)cc3)ncc2n1 [Example 11, (R)-2-(4-isopropylphenyl)-N-(1-(2-propyl-2H-pyrazolo[3,4-c]pyridin-5-yl)ethyl)acetamide] | 2.42 |
| CC(C)c1ccc(CC(=O)N[C@H](C)c2cc3cnn(C)c3nn2)cc1 [Example 13, (R)-2-(4-isopropylphenyl)-N-(1-(1-methyl-1H-pyrazolo[3,4-c]pyridazin-5-yl)ethyl)acetamide] | 0.71 |
| C[C@@H](NC(=O)Cc1ccc(C(C)(F)F)nc1)c1cc2cnn(CC(F)(F)F)c2cn1 [Example 16, (R)-2-(6-(1,1-difluoroethyl)pyridin-3-yl)-N-(1-(1-(2,2,2-trifluoroethyl)-1H-pyrazolo[3,4-c]pyridin-5-yl)ethyl)acetamide] | 1.27 |
| CC(C)c1ccc(CC(=O)N[C@H](C)c2cc3cnn(CC(F)(F)F)c3cn2)cn1 [Example 20, (R)-2-(6-isopropylpyridin-3-yl)-N-(1-(1-(2,2,2-trifluoroethyl)-1H-pyrazolo[3,4-c]pyridin-5-yl)ethyl)acetamide] | 1.05 |
| C[C@@H](NC(=O)Cc1ccc(C2CC2)nc1)c1cc2cnn(-c3ccc(F)cc3)c2cn1 [Example 23, (R)-2-(6-cyclopropylnyridin-3-yl)-N-(1-(1-(4-fluorophenyl)-1H-pyrazolo[3,4-c]pyridin-5-yl)ethyl)acetamide] | 4.02 |
| C[C@@H](NC(=O)Cc1ccc(C2CC2)nc1)c1cc2cnn(CC(F)(F)F)c2cn1 [Example 25, (R)-2-(6-cyclopropylpyridin-3-yl)-N-(1-(1-(2,2,2-trifluoroethyl)-1H-pyrazolo[3,4-c]pyridin-5-yl)ethyl)acetamide] | 2.59 |
| C[C@@H](NC(=O)Cc1ccc(C2(C(F)(F)F)CC2)nc1)c1cc2cnn(CC(F)(F)F)c2cn1 [Example 26, (R)—N-(1-(1-(2,2,2-trifluoroethyl)-1H-pyrazolo[3,4-c]pyridin-5-yl)ethyl)-2-(6-(1-(trifluoromethyl)cyclopropyl)pyridin-3-yl)acetamide] | 7.03 |

Now those with a lower IC50, led by results:

| IC50 [µM] | Structure (SMILES) |
| --- | --- |
| 0.647 | C[C@@H](NC(=O)Cc1ccc(C2(C(F)(F)F)CC2)cc1)c1cc2cnn(C)c2cn1 [Example 12, (R)—N-(1-(1-methyl-1H-pyrazolo[3,4-c]pyridin-5-yl)ethyl)-2-(4-(1-(trifluoromethyl)cyclopropyl)phenyl)acetamide] |
| 0.637 | C[C@@H](NC(=O)Cc1ccc(C2(C(F)F)CC2)nc1)c1cc2cnn(CC(F)(F)F)c2cn1 [Example 21, (R)-2-(6-(1-(difluoromethyl)cyclopropyl)pyridin-3-yl)-N-(1-(1-(2,2,2-trifluoroethyl)-1H-pyrazolo[3,4-c]pyridin-5-yl)ethyl)acetamide] |
| 0.522 | CC(C)c1ccc(CC(=O)N[C@H](C)c2cc3cnn(C)c3cn2)cc1 [Example 1, (R)-2-(4-isopropylphenyl)-N-(1-(1-methyl-1H-pyrazolo[3,4-c]pyridin-5-yl)ethyl)acetamide] |
| 0.505 | C[C@@H](NC(=O)Cc1ccc(C2CC2(F)F)cc1)c1cc2cnn(CC(F)(F)F)c2cn1 (single isomer, unassigned) [Example 31] |
| 0.475 | C[C@@H](NC(=O)Cc1ccc(C2CC2(F)F)cc1)c1cc2cnn(CC(F)(F)F)c2cn1 (single isomer, unassigned) [Example 30] |
| 0.343 | CC(C)c1ccc(CC(=O)N[C@H](C)c2cc3cnn(CC4(F)CC4)c3cn2)cc1 [Example 18, (R)—N-(1-(1-((1-fluorocyclopropyl)methyl)-1H-pyrazolo[3,4-c]pyridin-5-yl)ethyl)-2-(4-isopropylphenyl)acetamide] |
| 0.333 | C[C@@H](NC(=O)Cc1ccc(C2CC2)cc1)c1cc2nnn(CC(F)(F)F)c2cn1 [Example 24, (R)-2-(4-cyclopropylphenyl)-N-(1-(3-(2,2,2-trifluoroethyl)-3H-[1,2,3]triazolo[4,5-c]pyridin-6-yl)ethyl)acetamide] |
| 0.292 | C[C@@H](NC(=O)Cc1ccc(C2(C(F)(F)F)CC2)s1)c1cc2cnn(CC(F)(F)F)c2cn1 [Example 17, (R)—N-(1-(1-(2,2,2-trifluoroethyl)-1H-pyrazolo[3,4-c]pyridin-5-yl)ethyl)-2-(5-(1-(trifluoromethyl)cyclopropyl)thiophen-2-yl)acetamide] |
| 0.194 | C[C@@H](NC(=O)Cc1ccc(C2(C(F)F)CC2)cc1)c1cc2cnn(CC(F)(F)F)c2cn1 [Example 22, (R)-2-(4-(1-(difluoromethyl)cyclopropyl)phenyl)-N-(1-(1-(2,2,2-trifluoroethyl)-1H-pyrazolo[3,4-c]pyridin-5-yl)ethyl)acetamide] |
| 0.132 | C[C@@H](NC(=O)Cc1ccc(C(C)(F)F)cc1)c1cc2cnn(CC(F)(F)F)c2cn1 [Example 19, (R)-2-(4-(1,1-difluoroethyl)phenyl)-N-(1-(1-(2,2,2-trifluoroethyl)-1H-Pyrazolo[3,4-c]pyridin-5-yl)ethyl)acetamide] |
| 0.126 | CCn1ncc2cc([C@@H](C)NC(=O)Cc3ccc(C(C)C)cc3)ncc21 [Example 8, (R)—N-(1-(1-ethyl-1H-pyrazolo[3,4-c]pyridin-5-yl)ethyl)-2-(4-isopropylphenyl)acetamide] |
| 0.11 | CCCn1ncc2cc([C@@H](C)NC(=O)Cc3ccc(C(C)C)cc3)ncc21 [Example 7, (R)-2-(4-isopropylphenyl)-N-(1-(1-propyl-1H-pyrazolo[3,4-c]pyridin-5-yl)ethyl)acetamide] |
| 0.085 | CC(C)c1ccc(CC(=O)N[C@H](C)c2cc3cnn(CC(C)(F)F)c3cn2)cc1 [Example 14, (R)—N-(1-(1-(2,2-difluoropropyl)-1H-pyrazolo[3,4-c]pyridin-5-yl)ethyl)-2-(4-isopropylphenyl)acetamide] |
| 0.044 | CC(C)c1ccc(CC(=O)N[C@H](C)c2cc3cnn(CC(F)(F)F)c3cn2)cc1 [Example 9, (R)-2-(4-isopropylphenyl)-N-(1-(1-(2,2,2-trifluoroethyl)-1H-pyrazolo[3,4-c]pyridin-5-yl)ethyl)acetamide] |
